Earlier results on three molecules are cited in publication PMC8513935.

Data set [1] can be described thus: log P octanol/water from commercial databases, averaged (the ESI). Particulars: Octanol (wet), 25 C.
Data set [2] is described as follows: experimental, compiled by the authors from the literature (the ESI cites the sources).
Data set [3] can be described thus: derived by the authors as gas->solvent minus gas->water (a hypothetical dry solvent; the ESI), not a two-phase measurement.

`C1CC1`: the log K of transfer, water to solvent in data set [1] was 1.72 log10 K; in data set [3] (Butan-1-ol, 25 C) it was 1.81 log10 K; in data set [3] (Hexadecane, 25 C) it was 1.86 log10 K; in data set [3] (Hexane, 25 C), 2 log10 K; in data set [3] (Perfluoroalkane, 25 C), 1.44 log10 K; in data set [3] (Propan-1-ol, 25 C), 1.7 log10 K. In data set [3] (Propan-2-ol, 25 C), the log K of transfer, water to solvent is 1.71 log10 K. The log K of transfer, gas to solvent is 1.26 log10 K in data set [2] (Butan-1-ol, 25 C); 1.31 log10 K in data set [2] (Hexadecane, 25 C); 1.45 log10 K in data set [2] (Hexane, 25 C); 0.888 log10 K in data set [2] (Perfluoroalkane, 25 C); 1.15 log10 K in data set [2] (Propan-1-ol, 25 C); 1.16 log10 K in data set [2] (Propan-2-ol, 25 C). Besides, in data set [2] (Water, 25 C), the log K of transfer, gas to solvent was -0.55 log10 K.

Consider `C=CCCCCC`, for which the log K of transfer, water to solvent in data set [1] is 3.99 log10 K; in data set [3] (Butyronitrile, 25 C), 4.09 log10 K; in data set [3] (Hexadecane, 25 C), 4.28 log10 K; in data set [3] (Pentan-1-ol, 25 C), 4.1 log10 K; in data set [3] (Propionitrile, 25 C), 4 log10 K. In addition, the log K of transfer, gas to solvent is 2.87 log10 K in data set [2] (Butyronitrile, 25 C); 3.06 log10 K in data set [2] (Hexadecane, 25 C); 2.88 log10 K in data set [2] (Pentan-1-ol, 25 C); 2.78 log10 K in data set [2] (Propionitrile, 25 C); -1.22 log10 K in data set [2] (Water, 25 C).

On to `CCCCCO`, for which the log K of transfer, water to solvent in data set [1] was 1.51 log10 K; in data set [3] (1,2-Dichloroethane, 25 C), 0.72 log10 K; in data set [3] (2-Methylpropan-1-ol, 25 C), 1.67 log10 K; in data set [3] (2-Methylpropan-2-ol, 25 C), 1.75 log10 K; in data set [3] (Benzene, 25 C), 0.39 log10 K; in data set [3] (Butan-1-ol, 25 C), 1.61 log10 K. For the same molecule, the log K of transfer, water to solvent was 0.4 log10 K in data set [3] (CCl4, 25 C); 0.5 log10 K in data set [3] (Chlorobenzene, 25 C); 1.05 log10 K in data set [3] (Chloroform, 25 C); -0.411 log10 K in data set [3] (Cyclohexane, 25 C); 1.33 log10 K in data set [3] (Decan-1-ol, 25 C); -0.244 log10 K in data set [3] (Hexadecane, 25 C). The log K of transfer, water to solvent in data set [3] (Hexan-1-ol, 25 C) is 1.55 log10 K; in data set [3] (Hexane, 25 C) it was 0.037 log10 K; in data set [3] (Methanol, 25 C), 1.58 log10 K; in data set [3] (Octan-1-ol(dry), 25 C), 1.34 log10 K; in data set [3] (Pentan-1-ol, 25 C) it was 1.6 log10 K; in data set [3] (Propan-1-ol, 25 C), 1.62 log10 K. Moreover, the log K of transfer, water to solvent in data set [3] (Propan-2-ol, 25 C) was 1.66 log10 K; in data set [3] (Toluene, 25 C), 0.44 log10 K. Further, the log K of transfer, gas to solvent was 4.07 log10 K in data set [2] (1,2-Dichloroethane, 25 C); 5.02 log10 K in data set [2] (2-Methylpropan-1-ol, 25 C); 5.1 log10 K in data set [2] (2-Methylpropan-2-ol, 25 C); 3.74 log10 K in data set [2] (Benzene, 25 C); 4.96 log10 K in data set [2] (Butan-1-ol, 25 C); 3.75 log10 K in data set [2] (CCl4, 25 C). Moreover, the log K of transfer, gas to solvent was 3.85 log10 K in data set [2] (Chlorobenzene, 25 C); 4.4 log10 K in data set [2] (Chloroform, 25 C); 2.94 log10 K in data set [2] (Cyclohexane, 25 C); 4.68 log10 K in data set [2] (Decan-1-ol, 25 C); 3.1 log10 K in data set [2] (Hexadecane, 25 C); 4.9 log10 K in data set [2] (Hexan-1-ol, 25 C). The log K of transfer, gas to solvent in data set [2] (Hexane, 25 C) is 3.39 log10 K; in data set [2] (Methanol, 25 C), 4.93 log10 K; in data set [2] (Octan-1-ol, 25 C), 4.69 log10 K; in data set [2] (Pentan-1-ol, 25 C), 4.95 log10 K; in data set [2] (Propan-1-ol, 25 C), 4.97 log10 K; in data set [2] (Propan-2-ol, 25 C), 5.01 log10 K. The log K of transfer, gas to solvent in data set [2] (Toluene, 25 C) was 3.79 log10 K; in data set [2] (Water, 25 C), 3.35 log10 K.
